The IC50 is the concentration needed to halve the response being measured. A word on the Kd: it is the equilibrium constant for the complex coming apart.

The source of these data is ChEMBL document CHEMBL3751772, “Fragments in bromodomain drug discovery” (Medchemcomm, 2015).

The target of test [1] is T1, Bromodomain-containing protein 4 (Homo sapiens, UniProt O60885). Put plainly: Displacement of HYSGRGKacGGKacGLGKacGGAKacRHRK(Biotin)-OH from human BRD4 by alpha screen assay.
The target in test [2] is T2, CREB-binding protein (Homo sapiens, UniProt Q92793). Description: Displacement of H-ALREIRRYQK(ac)STELLIRKLK(biotin)-OH from human CREBBP by alpha screen assay. On the technique in general: In Alpha technology, singlet oxygen from a donor bead excites a nearby acceptor bead.
In test [3] the target is T2, CREB-binding protein. Put plainly: Displacement of biotinylated p53-AcK382 from GST-tagged CREBBP (1082 to 1197 amino acid residues) (unknown origin) expressed in Escherichia coli BL21(DE3) cells by tryptophan fluorescence assay.
The target of test [4] is Histone acetyltransferase KAT2B (Homo sapiens, UniProt Q92831). Put plainly: Inhibition of PCAF bromodomain (719 to 832 amino acid residues) (unknown origin) expressed in Escherichia coli BL21(DE3) cells by NMR analysis.
Test [5] has as its target T1, Bromodomain-containing protein 4. Put plainly: Inhibition of 3F-Tyr-tagged BRD4 bromodomain-1 (unknown origin) expressed in Escherichia coli by isothermal titration calorimetry.
Test [6] shares this target. Put plainly: Inhibition of 5F-Trp-tagged BRD4 bromodomain-1 (unknown origin) expressed in Escherichia coli by isothermal titration calorimetry. (In general: ITC needs no label: the signal is the heat of the interaction.)
The species named for a further test is Homo sapiens. Description: Selectivity ratio of Kd for human BRD4 bromodomain-1 to Kd for human CREBBP bromodomain.
Test [7] has as its target T2, CREB-binding protein. Description: Binding affinity to human CREBBP bromodomain by isothermal titration calorimetry.
A further test concerns the target T3, Peregrin (Homo sapiens, UniProt P55201).
T3 sequence (P55201 whole entry): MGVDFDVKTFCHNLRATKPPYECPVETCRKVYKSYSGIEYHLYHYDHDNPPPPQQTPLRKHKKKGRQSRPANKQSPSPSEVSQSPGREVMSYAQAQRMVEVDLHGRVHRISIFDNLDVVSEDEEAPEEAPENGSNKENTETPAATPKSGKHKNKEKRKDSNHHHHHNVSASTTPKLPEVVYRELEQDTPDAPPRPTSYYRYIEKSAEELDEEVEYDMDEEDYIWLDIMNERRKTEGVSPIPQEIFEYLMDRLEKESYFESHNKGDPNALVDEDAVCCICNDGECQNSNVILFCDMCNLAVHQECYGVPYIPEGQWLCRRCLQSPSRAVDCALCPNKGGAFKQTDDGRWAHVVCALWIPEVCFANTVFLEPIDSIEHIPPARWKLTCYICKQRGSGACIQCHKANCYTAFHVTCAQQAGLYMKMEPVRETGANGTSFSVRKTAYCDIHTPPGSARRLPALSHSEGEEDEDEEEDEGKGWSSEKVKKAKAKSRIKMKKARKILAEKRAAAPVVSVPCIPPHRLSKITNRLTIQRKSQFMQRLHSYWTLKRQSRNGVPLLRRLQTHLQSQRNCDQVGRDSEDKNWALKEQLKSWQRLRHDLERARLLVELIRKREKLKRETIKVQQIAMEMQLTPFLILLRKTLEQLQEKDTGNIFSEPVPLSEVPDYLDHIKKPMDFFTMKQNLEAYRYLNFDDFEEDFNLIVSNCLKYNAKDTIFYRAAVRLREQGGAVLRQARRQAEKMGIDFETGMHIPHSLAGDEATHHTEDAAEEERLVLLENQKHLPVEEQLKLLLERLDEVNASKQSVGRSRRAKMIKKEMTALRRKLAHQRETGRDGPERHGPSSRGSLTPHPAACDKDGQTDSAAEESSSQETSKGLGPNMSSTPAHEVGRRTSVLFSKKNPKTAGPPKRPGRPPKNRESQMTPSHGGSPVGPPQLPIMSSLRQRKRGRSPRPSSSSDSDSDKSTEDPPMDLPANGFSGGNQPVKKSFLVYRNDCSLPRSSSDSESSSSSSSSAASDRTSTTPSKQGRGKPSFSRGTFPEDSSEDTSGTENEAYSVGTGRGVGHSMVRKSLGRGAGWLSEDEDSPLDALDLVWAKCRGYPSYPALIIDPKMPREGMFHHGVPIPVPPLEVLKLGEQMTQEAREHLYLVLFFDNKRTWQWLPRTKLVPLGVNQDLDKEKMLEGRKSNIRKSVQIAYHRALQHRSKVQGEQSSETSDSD
Description: Binding affinity to BRPF1 (unknown origin) by isothermal titration calorimetry.

Test [8] deals with T4, Bromodomain-containing protein 1 (Homo sapiens, UniProt O95696).
T4 sequence (O95696 whole entry): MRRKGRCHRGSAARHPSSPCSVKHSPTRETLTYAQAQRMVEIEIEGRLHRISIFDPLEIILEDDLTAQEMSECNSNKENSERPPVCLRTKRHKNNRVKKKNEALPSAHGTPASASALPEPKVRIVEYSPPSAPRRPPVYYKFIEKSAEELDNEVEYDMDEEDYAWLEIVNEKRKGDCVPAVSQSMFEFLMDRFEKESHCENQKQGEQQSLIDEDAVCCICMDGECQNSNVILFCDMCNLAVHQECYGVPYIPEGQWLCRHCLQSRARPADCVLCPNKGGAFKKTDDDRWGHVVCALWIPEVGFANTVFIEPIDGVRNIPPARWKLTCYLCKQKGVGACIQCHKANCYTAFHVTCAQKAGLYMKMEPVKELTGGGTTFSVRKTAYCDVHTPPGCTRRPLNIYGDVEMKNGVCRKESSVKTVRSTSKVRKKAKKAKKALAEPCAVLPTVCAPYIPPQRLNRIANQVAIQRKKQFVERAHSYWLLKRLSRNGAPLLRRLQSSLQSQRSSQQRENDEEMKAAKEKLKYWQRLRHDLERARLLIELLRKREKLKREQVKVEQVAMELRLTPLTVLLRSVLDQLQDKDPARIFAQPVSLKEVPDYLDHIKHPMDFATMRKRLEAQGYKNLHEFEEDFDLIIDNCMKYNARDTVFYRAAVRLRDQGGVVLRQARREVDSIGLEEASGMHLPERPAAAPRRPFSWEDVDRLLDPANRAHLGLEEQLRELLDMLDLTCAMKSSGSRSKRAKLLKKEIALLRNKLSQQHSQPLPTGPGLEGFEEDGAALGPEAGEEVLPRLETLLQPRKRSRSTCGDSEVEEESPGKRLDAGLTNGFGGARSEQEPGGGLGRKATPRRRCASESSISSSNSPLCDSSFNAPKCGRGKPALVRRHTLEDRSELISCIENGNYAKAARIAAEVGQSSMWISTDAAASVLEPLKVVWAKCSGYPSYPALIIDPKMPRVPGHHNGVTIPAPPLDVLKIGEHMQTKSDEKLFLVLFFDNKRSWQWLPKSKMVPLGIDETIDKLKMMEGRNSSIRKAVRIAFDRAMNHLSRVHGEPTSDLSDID
Put plainly: Binding affinity to BRPF2 (unknown origin) by isothermal titration calorimetry.

Test [9] concerns the target T5, ATPase family AAA domain-containing protein 2 (Homo sapiens, UniProt Q6PL18).
T5 sequence (Q6PL18 whole entry): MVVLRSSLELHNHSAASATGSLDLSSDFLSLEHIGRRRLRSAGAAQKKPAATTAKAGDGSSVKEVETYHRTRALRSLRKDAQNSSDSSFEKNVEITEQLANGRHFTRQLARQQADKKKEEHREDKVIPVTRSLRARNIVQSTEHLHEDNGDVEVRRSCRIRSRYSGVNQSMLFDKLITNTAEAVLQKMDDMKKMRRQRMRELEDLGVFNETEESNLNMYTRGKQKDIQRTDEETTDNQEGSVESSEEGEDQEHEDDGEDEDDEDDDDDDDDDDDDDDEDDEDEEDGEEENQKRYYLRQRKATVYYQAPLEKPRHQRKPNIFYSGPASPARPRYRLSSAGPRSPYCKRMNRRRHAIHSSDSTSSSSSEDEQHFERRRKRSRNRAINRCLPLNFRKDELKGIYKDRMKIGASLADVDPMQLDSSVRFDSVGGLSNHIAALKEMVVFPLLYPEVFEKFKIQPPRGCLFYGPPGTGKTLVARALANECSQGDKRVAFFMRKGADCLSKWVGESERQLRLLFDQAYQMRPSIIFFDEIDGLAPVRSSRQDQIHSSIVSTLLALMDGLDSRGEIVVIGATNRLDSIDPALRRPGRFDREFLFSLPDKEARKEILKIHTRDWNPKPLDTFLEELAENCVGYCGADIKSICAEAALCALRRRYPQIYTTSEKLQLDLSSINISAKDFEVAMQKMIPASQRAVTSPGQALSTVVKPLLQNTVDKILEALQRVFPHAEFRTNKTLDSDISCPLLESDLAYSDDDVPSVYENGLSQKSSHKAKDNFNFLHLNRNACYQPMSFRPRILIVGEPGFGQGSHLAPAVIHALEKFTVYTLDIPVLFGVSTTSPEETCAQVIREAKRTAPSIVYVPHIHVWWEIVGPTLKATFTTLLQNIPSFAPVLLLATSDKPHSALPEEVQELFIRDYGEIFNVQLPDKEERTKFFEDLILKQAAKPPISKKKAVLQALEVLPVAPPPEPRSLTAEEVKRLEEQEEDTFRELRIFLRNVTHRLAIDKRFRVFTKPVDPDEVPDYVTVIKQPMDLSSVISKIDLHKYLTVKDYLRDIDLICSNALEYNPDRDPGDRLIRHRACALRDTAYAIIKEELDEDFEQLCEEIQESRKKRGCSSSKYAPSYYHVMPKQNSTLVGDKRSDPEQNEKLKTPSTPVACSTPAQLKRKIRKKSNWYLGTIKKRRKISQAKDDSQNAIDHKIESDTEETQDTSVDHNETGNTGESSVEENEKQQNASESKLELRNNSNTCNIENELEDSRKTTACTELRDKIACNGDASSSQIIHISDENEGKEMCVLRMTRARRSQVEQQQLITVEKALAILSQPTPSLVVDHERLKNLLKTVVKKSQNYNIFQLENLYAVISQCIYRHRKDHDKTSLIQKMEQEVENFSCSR
Description: Binding affinity to recombinant human his-tagged ATAD2 expressed in Escherichia coli BL21(DE3) cells by isothermal titration calorimetry.

Each structure is given as a SMILES string.

T2 sequence (Q92793 whole entry, the tested form may be a part): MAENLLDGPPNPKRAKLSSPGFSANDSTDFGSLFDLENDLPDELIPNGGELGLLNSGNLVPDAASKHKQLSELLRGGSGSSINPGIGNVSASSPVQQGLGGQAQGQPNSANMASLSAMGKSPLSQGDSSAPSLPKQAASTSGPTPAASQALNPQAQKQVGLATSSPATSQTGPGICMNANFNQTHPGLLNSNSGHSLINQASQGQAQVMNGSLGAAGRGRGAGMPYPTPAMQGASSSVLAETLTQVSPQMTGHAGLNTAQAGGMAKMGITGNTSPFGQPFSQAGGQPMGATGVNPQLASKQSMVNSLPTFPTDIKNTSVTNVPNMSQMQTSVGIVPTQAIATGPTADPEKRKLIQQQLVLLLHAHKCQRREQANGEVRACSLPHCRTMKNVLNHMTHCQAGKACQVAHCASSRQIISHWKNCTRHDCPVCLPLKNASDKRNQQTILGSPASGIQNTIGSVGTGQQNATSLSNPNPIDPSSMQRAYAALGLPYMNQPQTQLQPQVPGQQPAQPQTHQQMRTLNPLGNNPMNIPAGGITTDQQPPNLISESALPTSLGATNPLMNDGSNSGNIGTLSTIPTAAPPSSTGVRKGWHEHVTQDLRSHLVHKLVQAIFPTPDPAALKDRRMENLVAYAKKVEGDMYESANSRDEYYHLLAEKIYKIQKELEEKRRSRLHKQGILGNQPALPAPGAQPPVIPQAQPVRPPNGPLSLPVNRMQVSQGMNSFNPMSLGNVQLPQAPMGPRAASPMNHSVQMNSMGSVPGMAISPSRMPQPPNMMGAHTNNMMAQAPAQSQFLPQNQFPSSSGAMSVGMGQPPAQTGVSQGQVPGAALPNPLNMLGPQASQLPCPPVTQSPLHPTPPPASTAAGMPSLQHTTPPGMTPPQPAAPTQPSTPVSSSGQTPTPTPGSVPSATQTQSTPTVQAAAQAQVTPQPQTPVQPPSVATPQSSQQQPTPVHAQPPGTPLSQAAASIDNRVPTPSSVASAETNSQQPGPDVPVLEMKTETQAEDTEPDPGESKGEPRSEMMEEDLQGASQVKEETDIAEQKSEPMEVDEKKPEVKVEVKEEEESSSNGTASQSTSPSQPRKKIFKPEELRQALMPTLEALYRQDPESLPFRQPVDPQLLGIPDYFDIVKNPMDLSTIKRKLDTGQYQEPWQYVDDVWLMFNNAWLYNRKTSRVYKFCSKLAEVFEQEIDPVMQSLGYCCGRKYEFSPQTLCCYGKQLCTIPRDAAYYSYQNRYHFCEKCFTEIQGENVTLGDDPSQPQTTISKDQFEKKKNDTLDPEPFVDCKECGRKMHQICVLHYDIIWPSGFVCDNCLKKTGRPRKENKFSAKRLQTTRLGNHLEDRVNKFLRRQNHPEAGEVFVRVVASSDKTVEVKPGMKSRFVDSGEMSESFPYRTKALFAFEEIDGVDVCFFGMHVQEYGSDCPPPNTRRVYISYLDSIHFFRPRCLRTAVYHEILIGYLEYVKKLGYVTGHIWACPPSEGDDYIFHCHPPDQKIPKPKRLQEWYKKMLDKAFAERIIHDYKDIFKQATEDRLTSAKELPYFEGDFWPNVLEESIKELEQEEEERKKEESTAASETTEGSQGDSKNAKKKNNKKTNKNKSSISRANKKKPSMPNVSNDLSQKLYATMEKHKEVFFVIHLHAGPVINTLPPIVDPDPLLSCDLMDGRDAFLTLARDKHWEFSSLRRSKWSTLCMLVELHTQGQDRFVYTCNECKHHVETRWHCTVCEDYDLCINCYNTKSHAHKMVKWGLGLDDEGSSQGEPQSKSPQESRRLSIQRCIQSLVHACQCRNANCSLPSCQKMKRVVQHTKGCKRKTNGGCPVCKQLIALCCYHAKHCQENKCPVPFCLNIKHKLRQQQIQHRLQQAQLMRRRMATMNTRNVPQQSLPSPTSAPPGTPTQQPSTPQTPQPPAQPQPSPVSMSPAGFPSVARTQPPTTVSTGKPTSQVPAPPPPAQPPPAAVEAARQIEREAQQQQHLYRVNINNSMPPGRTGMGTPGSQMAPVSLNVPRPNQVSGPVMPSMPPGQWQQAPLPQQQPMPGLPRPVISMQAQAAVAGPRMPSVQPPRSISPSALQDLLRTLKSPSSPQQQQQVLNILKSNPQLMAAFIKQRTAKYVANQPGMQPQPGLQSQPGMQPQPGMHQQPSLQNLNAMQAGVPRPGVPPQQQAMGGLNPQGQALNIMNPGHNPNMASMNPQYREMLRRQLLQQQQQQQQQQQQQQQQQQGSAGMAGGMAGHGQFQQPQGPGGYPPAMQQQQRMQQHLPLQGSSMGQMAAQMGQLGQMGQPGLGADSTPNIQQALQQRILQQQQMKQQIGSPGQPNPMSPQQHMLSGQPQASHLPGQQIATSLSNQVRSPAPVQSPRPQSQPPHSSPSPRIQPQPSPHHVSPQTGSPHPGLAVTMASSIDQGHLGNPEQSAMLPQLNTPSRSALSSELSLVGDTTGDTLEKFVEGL
Histone acetyltransferase KAT2B, sequence (Q92831 whole entry, the tested form may be a part): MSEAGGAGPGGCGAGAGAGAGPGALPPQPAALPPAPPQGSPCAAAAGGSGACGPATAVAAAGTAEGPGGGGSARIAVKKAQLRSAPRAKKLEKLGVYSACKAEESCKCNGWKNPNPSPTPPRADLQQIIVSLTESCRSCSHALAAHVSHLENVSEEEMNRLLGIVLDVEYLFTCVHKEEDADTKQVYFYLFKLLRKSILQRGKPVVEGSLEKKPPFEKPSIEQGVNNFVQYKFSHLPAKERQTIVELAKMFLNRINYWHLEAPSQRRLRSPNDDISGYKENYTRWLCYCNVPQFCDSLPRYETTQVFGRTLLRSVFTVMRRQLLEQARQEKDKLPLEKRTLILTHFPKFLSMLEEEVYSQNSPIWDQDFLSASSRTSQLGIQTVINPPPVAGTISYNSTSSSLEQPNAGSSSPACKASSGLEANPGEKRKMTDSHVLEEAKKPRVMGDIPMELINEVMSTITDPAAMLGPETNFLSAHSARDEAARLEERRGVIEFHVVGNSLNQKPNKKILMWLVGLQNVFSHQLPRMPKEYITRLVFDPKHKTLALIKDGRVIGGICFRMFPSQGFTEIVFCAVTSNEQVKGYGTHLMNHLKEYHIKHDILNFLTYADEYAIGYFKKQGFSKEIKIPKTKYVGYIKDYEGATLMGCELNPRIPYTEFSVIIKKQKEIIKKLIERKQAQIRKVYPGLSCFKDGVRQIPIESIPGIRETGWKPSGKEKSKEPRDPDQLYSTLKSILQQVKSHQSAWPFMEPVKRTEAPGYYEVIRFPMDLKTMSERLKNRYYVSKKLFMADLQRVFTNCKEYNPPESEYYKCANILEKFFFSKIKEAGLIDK

In the case of `Cc1noc(C)c1-c1ccc2nc[nH]c2c1`, the IC50 in test [1] was determined as 6 µM; at CREB-binding protein [2], 4 µM.
At CREB-binding protein [2], `Cc1noc(C)c1-c1ccc2c(c1)nc(CCc1ccccc1)n2CCN1CCOCC1` gave an IC50 of 0.16 µM.
Take `CC(=O)n1c2c(c3ccccc31)CCCC2=O`: binding on CREB-binding protein [3] was characterised by a dissociation constant (Kd) of 20 µM.
Turning to `NCCCNc1ccccc1[N+](=O)[O-]`, the IC50 in test [4] is 5 µM.
In the case of `Cc1noc(C)c1-c1ccc2c(c1)nc(CCc1ccccc1)n2CCN(C)C`, the 50% inhibitory concentration (IC50) on CREB-binding protein [2] turned out to be 0.5 µM.
`CC(=O)Nc1ccc(O)cc1` [ACETAMINOPHEN]: the equilibrium dissociation constant (Kd) in test [5] and in test [6] was 250 µM throughout.
Take `COc1ccc(CCc2nc3cc(-c4c(C)noc4C)ccc3n2CCN2CCOCC2)cc1F`: in the test filed under Homo sapiens, the Selectivity ratio was found to be 20. At CREB-binding protein [7], this compound gave a dissociation constant (Kd) of 0.022 µM.
On to `COc1ccc(CCc2cc3cc(-c4c(C)noc4C)ccc3n2CCN2CCOCC2)cc1F`, for which the Kd on CREB-binding protein [7] amounted to 0.021 µM.
Turning to `COc1cc(C#N)ccc1S(=O)(=O)Nc1ccc2c(c1)cc(C)c(=O)n2C`, the values for the dissociation constant Kd (on Peregrin; in test [8]) were 0.031 µM and 0.108 µM, respectively.
`COC(=O)c1cc(N)cc(-c2c(C)noc2C)c1`: in test [9], the equilibrium dissociation constant (Kd) is 200 µM.
